Results on 15 compounds are retold here after ChEMBL document CHEMBL4270535, “Facile synthesis of vanillin-based novel bischalcones identifies one that induces apoptosis and displays synergy with Artemisinin in killing chloroquine resistant Plasmodium falciparum” (Eur J Med Chem, 2018).

Data set [1] deals with Plasmodium falciparum. Briefly: Antiplasmodial activity against synchronized ring stage of chloroquine-sensitive Plasmodium falciparum 3D7 infected in human erythrocytes after 48 hrs by SYBR Green 1 dye based fluorescence assay. The format is functional, organism-based. The settings on record: 3D7, 48 h.
Data set [2] has as its system Plasmodium falciparum. Description: Antiplasmodial activity against synchronized ring stage of chloroquine-resistant Plasmodium falciparum INDO infected in human erythrocytes after 48 hrs by SYBR Green 1 dye based fluorescence assay. Format: functional, organism-based.
Data set [3] concerns Plasmodium falciparum. Briefly: Antiplasmodial activity against synchronized ring stage of chloroquine-resistant Plasmodium falciparum Dd2 infected in human erythrocytes after 48 hrs by SYBR Green 1 dye based fluorescence assay. The format is functional, organism-based. The following applies: Dd2, 48 h.
Data set [4] can be described thus: Resistance index, ratio of IC50 for synchronized ring stage of chloroquine-resistant Plasmodium falciparum INDO infected in human erythrocytes to IC50 for synchronized ring stage of chloroquine-sensitive Plasmodium falciparum 3D7 infected in human erythrocytes. The format is functional.
Data set [5] can be described thus: Resistance index, ratio of IC50 for synchronized ring stage of chloroquine-resistant Plasmodium falciparum Dd2 infected in human erythrocytes to IC50 for synchronized ring stage of chloroquine-sensitive Plasmodium falciparum 3D7 infected in human erythrocytes. Format: functional.
The nature of data set [6]: Selectivity index, ratio of IC50 for human HeLa cells to IC50 for synchronized ring stage of chloroquine-sensitive Plasmodium falciparum 3D7 infected in human erythrocytes. The format is toxicity, cell-based. The following applies: read-out: Ratio IC50.
Data set [7] in a line: Selectivity index, ratio of IC50 for mouse L929 cells to IC50 for synchronized ring stage of chloroquine-sensitive Plasmodium falciparum 3D7 infected in human erythrocytes. The format is toxicity, cell-based. The following applies: read-out: Ratio IC50.
The test system of data set [8] is Plasmodium falciparum. Briefly: Potentiation of artemisinin-induced antiplasmodial activity against synchronized ring stage of chloroquine-sensitive Plasmodium falciparum 3D7 infected in human erythrocytes assessed as fold reduction in artemisinin IC50 relative to artemisinin alone. Format: functional.

The structures appear in SMILES notation.

On to `C=CCOc1c(OC)cc(/C=C/C(=O)c2ccc(Br)cc2)cc1-c1cc(/C=C/C(=O)c2ccc(Br)cc2)cc(OC)c1OCC=C`, for which, in the data set on Plasmodium falciparum [1], the 50% inhibitory concentration (IC50) is greater than 50 µM.

In the data set with Plasmodium falciparum [1], `C=CCOc1c(OC)cc(/C=C/C(=O)c2ccc(OC)cc2)cc1-c1cc(/C=C/C(=O)c2ccc(OC)cc2)cc(OC)c1OCC=C` had a half-inhibitory concentration (IC50) of 57 µM.

For the compound `C=CCOc1ccc(/C=C/C(=O)c2cccc(C(=O)/C=C/c3ccc(OCC=C)c(OCC=C)c3)c2)cc1OCC=C`, the IC50 in the data set with Plasmodium falciparum [1] came out at 18 µM; in the data set with Plasmodium falciparum [2], 13.7 µM; in the data set with Plasmodium falciparum [3], 18.9 µM. Also, the “Ratio IC50” value in data set [4] was 0.76; in data set [5], 1.05. The selectivity ratio in data set [6] and in data set [7] was greater than 5.6 throughout.

Compound `C=CCOc1ccc(/C=C/C(=O)c2cccc(C(=O)/C=C/c3ccc(OCC=C)c(OC)c3)c2)cc1OC` returned a concentration for half-maximal inhibition (IC50) in the data set with Plasmodium falciparum [1] greater than 50 µM.

Consider `C=CCOc1c(OC)cc(/C=C/C(=O)c2ccc(Cl)cc2)cc1-c1cc(/C=C/C(=O)c2ccc(Cl)cc2)cc(OC)c1OCC=C`, for which, in the data set on Plasmodium falciparum [1], the 50% inhibitory concentration (IC50) was greater than 50 µM.

For `C=CCOc1ccc(C(=O)/C=C/c2cc(OC)c(OCC=C)c(-c3cc(/C=C/C(=O)c4ccc(OCC=C)cc4OCC=C)cc(OC)c3OCC=C)c2)c(OCC=C)c1`, half-maximal inhibition in the data set on Plasmodium falciparum [1] (IC50) was put at 63 µM.

Take `C=CCOc1c(OC)cc(/C=C/C(=O)c2ccc3c(c2)OCO3)cc1-c1cc(/C=C/C(=O)c2ccc3c(c2)OCO3)cc(OC)c1OCC=C`: the concentration for half-maximal inhibition (IC50) with Plasmodium falciparum [1] is 38 µM; in the data set with Plasmodium falciparum [2] it was 3.8 µM; in the data set with Plasmodium falciparum [3] it was 3.8 µM. Also, the “Ratio IC50” value in data set [4] and in data set [5] was 0.1 in each case. The selectivity ratio in data set [6] and in data set [7] was greater than 2.6 each time.

On to `C=CCOc1c(OC)cc(/C=C/C(=O)c2ccc([N+](=O)[O-])cc2)cc1-c1cc(/C=C/C(=O)c2ccc([N+](=O)[O-])cc2)cc(OC)c1OCC=C`, for which the IC50 in the data set on Plasmodium falciparum [1] was found to be 25 µM; in the data set on Plasmodium falciparum [2], 5 µM; in the data set on Plasmodium falciparum [3], 9.3 µM. In addition, the entries for the “Ratio IC50” value in data set [4] and in data set [5] were 0.2 and 0.37, respectively. Also, the values for the selectivity ratio in data set [6] and in data set [7] were greater than 4 and 3.2, respectively.

As to `C[C@@H]1CC[C@H]2[C@@H](C)C(=O)O[C@@H]3O[C@@]4(C)CC[C@@H]1[C@]32OO4` [ARTEMISININ], the IC50 in the data set with Plasmodium falciparum [2] turned out to be 0.015 µM; in the data set on Plasmodium falciparum [3], 0.013 µM. The entries for the “Ratio IC50” value (in data set [4]; in data set [5]; in the data set on Plasmodium falciparum [8]) were 1, 0.87 and 1.7 - 3.7, respectively. For the same compound, the selectivity ratio in data set [6] and in data set [7] was greater than 200 each time.

Regarding `C=CCOc1c(OC)cc(/C=C/C(=O)c2ccccc2)cc1-c1cc(/C=C/C(=O)c2ccccc2)cc(OC)c1OCC=C`, the half-inhibitory concentration (IC50) with Plasmodium falciparum [1] is 7 µM; with Plasmodium falciparum [2] it was 3.5 µM; in the data set on Plasmodium falciparum [3], 2.1 µM. Besides, the “Ratio IC50” value was 0.5 in data set [4] and 0.3 in data set [5]. For the same compound, the selectivity ratio was greater than 28.6 in data set [6] and 7.1 in data set [7].

Regarding `COc1cc(/C=C/C(=O)c2ccccc2)cc(-c2cc(/C=C/C(=O)c3ccccc3)cc(OC)c2OC)c1OC`, the concentration for half-maximal inhibition (IC50) in the data set on Plasmodium falciparum [1] was found to be 9.3 µM; in the data set on Plasmodium falciparum [2], 3.7 µM; in the data set on Plasmodium falciparum [3], 3.7 µM. Moreover, the “Ratio IC50” value in data set [4] and in data set [5] was 0.4 each time. Moreover, the selectivity ratio in data set [6] was determined as 12.4; in data set [7] it was 1.1.

`C=CCOc1c(OC)cc(/C=C/C(=O)c2cc3ccccc3oc2=O)cc1-c1cc(/C=C/C(=O)c2cc3ccccc3oc2=O)cc(OC)c1OCC=C` gave a half-inhibitory concentration (IC50) with Plasmodium falciparum [1] of 18.4 µM. This counts as double-digit micromolar.

As for `C=CCOc1c(OC)cc(/C=C/C(=O)c2ccc(OCCC)cc2)cc1-c1cc(/C=C/C(=O)c2ccc(OCCC)cc2)cc(OC)c1OCC=C`, the IC50 amounted to 1.5 µM in the data set with Plasmodium falciparum [1], 12.2 µM with Plasmodium falciparum [2] and 11.6 µM in the data set on Plasmodium falciparum [3]. Besides, the “Ratio IC50” value in data set [4] amounted to 8.1; in data set [5], 7.7. Also, the selectivity ratio in data set [6] and in data set [7] was greater than 66.7 each time.

`C=CCOc1ccc(C(=O)/C=C/c2cc(OC)c(OCC=C)c(-c3cc(/C=C/C(=O)c4ccc(OCC=C)cc4)cc(OC)c3OCC=C)c2)cc1`: the values for the IC50 in the data set on Plasmodium falciparum [1], in the data set with Plasmodium falciparum [2] and with Plasmodium falciparum [3] were 2 µM, greater than 50 µM and 16.6 µM, respectively. Further, the “Ratio IC50” value in data set [4] was greater than 25; in data set [5] it was 8.3. Also, the selectivity ratio in data set [6] and in data set [7] was greater than 100 in each case.

Regarding `C=CCOc1c(OC)cc(/C=C/C(=O)c2cc(OC)c(OC)c(OC)c2)cc1-c1cc(/C=C/C(=O)c2cc(OC)c(OC)c(OC)c2)cc(OC)c1OCC=C`, the half-inhibitory concentration (IC50) was determined as 5.5 µM in the data set with Plasmodium falciparum [1], 2.2 µM in the data set on Plasmodium falciparum [2] and 1.7 µM with Plasmodium falciparum [3]. Further, the “Ratio IC50” value in data set [4] was found to be 0.4; in data set [5], 0.3. For the same compound, the selectivity ratio in data set [6] and in data set [7] was greater than 36.4 in each case.
